Columns and labels:
[1] = Host toxicity in P. yoelii-infected mice (diarrhea, weight loss, tolerance); assay type: in vivo, Swiss white mice
Experimental: FIG. 6 illustrates the weight changes in mice receiving 5 mg/kg of 5-fluoro-orotate without (Δ) or with (.tangle-solidup.) uridine. The pyrimidine analogue was administered on days 3 to 6. The pyrimidine nucleoside was given to mice in experiment 2 on days 3 to 9. Data points represent mean weights of mice that remained alive during the course of experiments 1 and 2 (see FIG. 5C). Error bars represent standard deviations from the mean.
A second in vivo test system can be used to determine if repeated administration of the pyrimidine analogue would have safe anti-malarial activity. In this test system, groups of animals are infected with malaria parasites. At a time when blood parasitemia is reached, the animals are injected with saline alone (control) or with various concentrations of one or more pyrimidine analogues alone or together with one or more rescuing pyrimidine bases or nucleosides at a single concentration, at intervals, over a period of several days. In order to determine the prophylactic effectiveness of the rescuing pyrimidine base or nucleoside, the animals are pretreated with such a base or nucleoside prior to the administration of the pyrimidine analogue. Anti-malarial activity of the treatments is estimated by determining blood parasitemia on the animals at appropriate times. The safety of the treatments is estimated by monitoring animals for weight loss and diarrhea, as these are early symptoms of pyrimidine analogue toxicity [Houghton, J. A., et al., Cancer Res., 39:2406-13 (1979)].
Swiss white mice (25-30 g) were divided into groups of five. On day 0, each mouse was infected by intraperitoneal injection of 10^5 erythrocytic forms of P. yoelii. Starting on day 3, when the blood parasitemia had reached between 5 and 12%, the mice were injected intraperitoneally every 4 hours for three consecutive days with 200 μl of various formulations. In experiment 1, three groups of mice received 0.2, 1, or 5 mg/kg of 5-fluoro-orotate per injection, respectively. An accompanying control group received saline. In experiment 2, three groups of mice received 0.2, 1, or 5 mg/kg of 5-fluoro-orotate plus 800 mg/kg of uridine in a 200 μl saline formulation. An accompanying control group received 800 mg/kg of uridine alone. In experiment 2, mice were pretreated with one injection of 800 mg/kg of uridine two hours before receiving the first injection of 5-fluoro-orotate. Additionally, even though treatment with the pyrimidine analogue stopped on day 6, these mice continued to receive 1500 mg/kg of uridine, three times a day, for three additional days (i.e., up to day 9).

mammalian cell lines = test: Toxicity to a battery of mammalian cell lines; assay type: cell-based, human and mouse
From the text: 2. Effects of orotate analogues on cell viability and the ability to synthesize nucleic acids from radioactive precursors, and the rescuing effects of normal pyrimidine bases or nucleosides or amino acid derivatives such as histidinol, can be tested in human-derived tissue culture cell lines. Human HT-1080 human sarcoma cells [Rusheed, S., et al., Cancer, 33:1027-30 (1974)], human diploid IMR-90 cells [Nichols, W. W., et al., Science, 196:60-3 (1977)], human cervical […] HeLa S3 cells [Puck, T. T., et al., J. Exp. Med., 103:273-84 (1956)], HL-60 human myeloid leukemia cells [Collins, S. J., et al., Nature, 270:347-9 (1977)], and mouse leukemia L-1210 cells [Moore, G. E., J. Nat. […] The growth medium most suitable for each cell line can be determined by reference to the publications cited above: briefly, HT-1080 cells are maintained in Eagle's Minimal Essential Medium (EMEM) supplemented with 5% fetal bovine serum (FBS) and 2 mM L-glutamine; IMR-90 cells are grown in EMEM supplemented with 10% FBS, 10 mM Hepes buffer, 0.21% NaHCO3, and 2 mM L-glutamine. […]
Toxicity of pyrimidine analogues to cultured human cells is determined as follows. […] Thereafter, the number of cells in each well is determined. […] Cells that grow in suspension (e.g., HL-60 and L-1210 cells) are transferred to centrifuge tubes, pelleted at low speed, washed, and the viability determined as above. […]

## O=C(O)c1[nH]c(=O)[nH]c(=O)c1F [5-fluoro-orotate]
[1]; 5 mg/kg every 4 hours
  tolerance of highest dose: tolerated only when uridine was administered in combination with 5-fluoro-orotate
[1]; experiment 1, 1 and 5 mg/kg, no uridine
  mortality at higher doses: dose-dependent increase in mortality
[1]; experiment 1, higher doses, no uridine
  diarrhea in surviving mice: showed signs of diarrhea
[1]; experiment 2, 5 mg/kg with uridine (FIG. 6)
  weight loss: no weight loss
[1]; experiment 2, with uridine
  diarrhea: no mouse had diarrhea
Mammalian cell lines; 0.1 to 1 μM, in culture
  toxicity to rapidly dividing mammalian cells: not toxic to rapidly dividing mammalian cells in culture
Mammalian cell lines; read-out: IC50 range over the mammalian cell lines
  IC50: 0.9 to 10 µM

From patent publication US6159953A, “Anti-malarial composition and method of use” (Catholic University of America, priority 1992, dated 2000)
